From ChEMBL document CHEMBL1125342, “Condensation of muscimol or thiomuscimol with aminopyridazines yields GABA-A antagonists” (J Med Chem, 1992)

How the values were obtained:
[1] = molecular target: GABA-A receptor; anion channel; type: functional, tissue-based, Bos taurus, Brain
[2] = molecular target: GABA-A receptor; anion channel; type: organism-based, Bos taurus, Brain

Row | Structure (SMILES) | IC50 [1] | IC50 [2]
1 | Cc1cc(-c2ccccc2)c(=N)n(Cc2cc(O)ns2)n1 | 1000 nM | 6600 nM
2 | N=c1ccc(-c2ccsc2)nn1Cc1cc(O)no1 | – | 1600 nM
3 | N=c1ccc(-c2ccc(Cl)cc2)nn1Cc1cc(O)no1 | 80 nM | 1200 nM
4 | Cc1cc(-c2ccccc2)nn(CCCC(=O)O)c1=N | – | 2300 nM
5 | NCc1cc(=O)[nH]o1 [MUSCIMOL] | 135 nM | 2 nM
6 | NCc1cc(O)ns1 | – | 19 nM
7 | Cc1cc(-c2ccccc2)c(=N)n(CCCC(=O)O)n1 | – | 10600 nM
8 | O=C1OC=C2CCCNCC12 (stereo not drawn) | – | 56000 nM
9 | N=c1ccc(-c2ccccc2)nn1CCCC(=O)O | – | 1200 nM
10 | N=c1ccc(-c2ccsc2)nn1CCCC(=O)O | – | 2370 nM

Second part, the compound after the results:

Row | IC50 [1] | IC50 [2] | Structure (SMILES)
11 | 25 nM | 160 nM | N=c1c2ccccc2c(-c2ccccc2)nn1Cc1cc(O)ns1
12 | 6 nM | 75 nM | N=c1ccc(-c2ccc3c(c2)OCO3)nn1Cc1cc(O)no1
13 | – | 280 nM | N=c1ccc(-c2ccc(Cl)cc2)nn1CCCC(=O)O
14 | 29 nM | 150 nM | N=c1ccc(-c2ccc(Cl)cc2)nn1Cc1cc(O)ns1
15 | 190 nM | 120 nM | N=c1c2ccccc2c(-c2ccccc2)nn1Cc1cc(O)no1
16 | – | 1000 nM | Cc1cc(-c2ccccc2)nn(Cc2cc(O)no2)c1=N
17 | – | 50 nM | N=c1ccc(-c2ccc3c(c2)OCO3)nn1CCCC(=O)O
18 | 3 nM | 43 nM | C[C@]12CC(=O)C3C(CC[C@@H]4C[C@H](O)CC[C@]34C)C1CC(=N)N2 (stereo partly drawn)
19 | 0.76 nM | 17 nM | N=c1ccc(-c2ccc3c(c2)OCO3)nn1Cc1cc(O)ns1
